Here are results for 24 molecules from patent US9096598B2 (Merck Sharp & Dohme Corp., priority 2011, dated 2015).

Each structure is given as a SMILES string.

Experiment [1] deals with T1, JAK2 (Homo sapiens, UniProt O60674).
T1 construct: recombinant purified GST-tagged catalytic domain for each enzyme; purchased Invitrogen M4290
Put plainly: Jak Biochemical HTRF Assay (JAK2). Conditions: recombinant purified GST-tagged catalytic domain, [ATP] 8.5 μM, values given as range classes. How it is done:
(§1) Jak Biochemical HTRF Assay Protocol
(§2) The ability of compounds to inhibit the activity of JAK1, JAK2, JAK3, and Tyk2 was measured using a recombinant purified GST-tagged catalytic domain for each enzyme (Invitrogen JAK1 #M4290, JAK2 #M4290, JAK3 #M4290, Tyk2 #M4290) in an HTRF format biochemical assay. The reactions employed a common peptide substrate, LCB-EQEDEPEGDYFEWLW-NH2 (in-house). The basic assay protocol is as follows: First, 250 nL of diluted compounds in DMSO were dispensed into the wells of a dry 384-well Black plate (Greiner #781076) using a Labcyte Echo 555 acoustic dispenser. Subsequent reagent additions employed an Agilent Bravo. Next, 18 μL of 1.11× enzyme and 1.11× substrate in 1× assay buffer (Invitrogen kinase buffer #PV3189, 2 mM DTT, 0.05% BSA) were added to the wells and shaken and then preincubated for 30 minutes at room temperature to allow compound binding to equilibrate. After equilibration, 2 μL of 10×ATP in 1× assay buffer was added to initiate the kinase reaction and the plates were shaken and then incubated at room temperature for 120 minutes. At the end of the incubation, 20 μL of 2× stop buffer (streptavidin-Dylight 650 (Thermo #84547B/100 mL), Eu-tagged pY20 antibody (Perkin Elmer #AD0067), EDTA, HEPES, and Triton) was added to quench the reaction. Plates were shaken and centrifuged and then incubated 60 minutes at room temperature and then read on a Perkin Elmer Envision (λex=337 nm, λem=665 and 615 nm, TRF delay time=20 μs). HTRF signal=10,000*665 nm reading/615 nm reading. After normalization to untreated controls, the percent inhibition of the HTRF signal at each compound concentration was calculated. The plot of percent inhibition versus the log of compound concentration was fit with a 4-parameter dose response equation to calculate IC50 values.
(§3) Final reaction conditions were:
(§4) Examples of the instant invention were evaluated in JAK2 and JAK3 in vitro binding assays. Table 13 tabulates the biological data disclosed for the instant invention as a range of JAK2 and JAK3 IC50 values (A: IC50≦10 nM; B: 10 nM>IC50≦500 nM C: IC50>500 nM).
On the technique in general: TR-FRET usually uses a lanthanide donor and a delayed reading to cut background.

Experiment [2] has as its target T2, JAK3 (Homo sapiens, UniProt P52333).
T2 construct: recombinant purified GST-tagged catalytic domain for each enzyme; purchased Invitrogen M4290
Put plainly: Jak Biochemical HTRF Assay (JAK3). The conditions noted are these: recombinant purified GST-tagged catalytic domain, [ATP] 2.9 μM, values given as range classes. On the procedure: as §1, §2, §3, §4

T1 sequence (O60674 849-1124 limits assumed): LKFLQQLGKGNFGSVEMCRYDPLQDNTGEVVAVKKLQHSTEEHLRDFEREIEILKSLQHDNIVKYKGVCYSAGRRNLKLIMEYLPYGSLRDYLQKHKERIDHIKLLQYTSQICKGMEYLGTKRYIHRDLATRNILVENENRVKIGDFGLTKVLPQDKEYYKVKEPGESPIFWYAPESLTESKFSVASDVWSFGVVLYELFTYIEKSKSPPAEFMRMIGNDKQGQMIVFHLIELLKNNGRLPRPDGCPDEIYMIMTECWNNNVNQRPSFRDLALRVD
T2 sequence (P52333 822-1111 limits assumed): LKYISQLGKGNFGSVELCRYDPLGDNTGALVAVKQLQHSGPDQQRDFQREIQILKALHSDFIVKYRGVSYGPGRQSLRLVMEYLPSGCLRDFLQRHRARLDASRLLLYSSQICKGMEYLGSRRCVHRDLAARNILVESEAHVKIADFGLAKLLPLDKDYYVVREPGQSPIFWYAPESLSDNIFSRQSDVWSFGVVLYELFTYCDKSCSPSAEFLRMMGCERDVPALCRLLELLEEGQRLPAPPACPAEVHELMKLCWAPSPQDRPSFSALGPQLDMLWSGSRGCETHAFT

For `CC(C)[C@@H](Nc1cnnc(-c2c[nH]c3ncc(F)cc23)n1)C(=O)NCC(F)(F)F` [Example 1-16, N~2~-[3-(5-fluoro-1H-pyrrolo[2,3-b]pyridin-3-yl)-1,2,4-triazin-5-yl]-N-(2,2,2-trifluoroethyl)-D-valinamide], the values for the IC50 in experiment [1] and in experiment [2] were 10 to 500 nM and at most 10 nM, respectively.

Consider `CC(C)[C@@H](Nc1cncc(-c2c[nH]c3ncc(C(=O)N4CCC(O)CC4)cc23)c1)C(=O)NCC(F)(F)F` [Example 3-13, N~2~-(5-{5-[(4-hydroxypiperidin-1-yl)carbonyl]-1H-pyrrolo[2,3-b]pyridin-3-yl}pyridin-3-yl)-N-(2,2,2-trifluoroethyl)-D-valinamide], for which the values for the IC50 in experiment [1] and in experiment [2] were above 500 nM and 10 to 500 nM, respectively.

In the case of `C[C@@H](Nc1cnnc(-c2c[nH]c3ncc(C#N)cc23)n1)C(=O)NCC(F)(F)F` [Example 1-9, N~2~-[3-(5-cyano-1H-pyrrolo[2,3-b]pyridin-3-yl)-1,2,4-triazin-5-yl]-N-(2,2,2-trifluoroethyl)-D-alaninamide], the IC50 (commonly the point on the concentration scale where inhibition reaches its midpoint) in experiment [1] was 10 to 500 nM; in experiment [2], at most 10 nM.

`N#Cc1cnc2[nH]cc(-c3nncc(N4CCCC4c4nccs4)n3)c2c1` (stereo not drawn) [Example 1-12, 3-{5-[2-(1,3-thiazol-2-yl)pyrrolidin-1-yl]-1,2,4-triazin-3-yl}-1H-pyrrolo[2,3-b]pyridine-5-carbonitrile]: the half-inhibitory concentration (IC50) in experiment [1] and in experiment [2] was 10 to 500 nM each time.

`CC(C)[C@H](Nc1cncc(-c2c[nH]c3ncc(OC4CCOCC4)cc23)c1)C(=O)NCC(F)(F)F` [Example 2-9, N~2~-{5-[5-(tetrahydro-2H-pyran-4-yloxy)-1H-pyrrolo[2,3-b]pyridin-3-yl]pyridin-3-yl}-N-(2,2,2-trifluoroethyl)valinamide]: the results for the concentration for half-maximal inhibition (IC50) in experiment [1] and in experiment [2] were 10 to 500 nM and at most 10 nM, respectively.

As for `CC(C)[C@@H](Nc1cncc(-c2c[nH]c3ncc(Cl)cc23)c1)C(=O)NCC(F)(F)F` [Example 1-51, N~2~-[5-(5-chloro-1H-pyrrolo[2,3-b]pyridin-3-yl)pyridin-3-yl]-N-(2,2,2-trifluoroethyl)-D-valinamide], the IC50 in experiment [1] and in experiment [2] was at most 10 nM throughout.

Consider `CC(C)[C@H](Nc1cncc(-c2c[nH]c3ncc(N)cc23)c1)C(=O)NCC(F)(F)F` [Example 5-1, N^2-[5-(5-amino-1H-pyrrolo[2,3-b]pyridin-3-yl)pyridin-3-yl]-N-(2,2,2-trifluoroethyl)valinamide], for which the IC50 in experiment [1] and in experiment [2] was 10 to 500 nM each time.

As for `Clc1cnc2[nH]cc(-c3cc(N4CCCC4c4nccs4)cnn3)c2c1` (stereo not drawn) [Example 1-26, 5-chloro-3-{5-[2-(1,3-thiazol-2-yl)pyrrolidin-1-yl]pyridazin-3-yl}-1H-pyrrolo[2,3-b]pyridine], the half-maximal inhibitory concentration (IC50) in experiment [1] and in experiment [2] was 10 to 500 nM in each case.

Turning to `CNC(=O)Nc1cnc2[nH]cc(-c3cncc(N[C@H](C(=O)NCC(F)(F)F)C(C)C)c3)c2c1` [Example 6-5, N~2~-(5-{5-[(methylcarbamoyl)amino]-1H-pyrrolo[2,3-b]pyridin-3-yl}pyridin-3-yl)-N-(2,2,2-trifluoroethyl)valinamide], the values for the IC50 in experiment [1] and in experiment [2] were 10 to 500 nM and at most 10 nM, respectively.

On to `CC(C)[C@H](Nc1cncc(-c2c[nH]c3ncc(NC(=O)CO)cc23)c1)C(=O)NCC(F)(F)F` [Example 5-7, N~2~-(5-{5-[(hydroxyacetyl)amino]-1H-pyrrolo[2,3-b]pyridin-3-yl}pyridin-3-yl)-N-(2,2,2-trifluoroethyl)valinamide], for which the IC50 in experiment [1] is 10 to 500 nM; in experiment [2] it was at most 10 nM.

`COc1cnc2[nH]cc(-c3nncc(N[C@@H](C(=O)NCC(F)(F)F)C(C)C)n3)c2c1` [Example 1-20, N~2~-[3-(5-methoxy-1H-pyrrolo[2,3-b]pylidin-3-yl)-1,2,4-triazin-5-yl]-N-(2,2,2-trifluoroethyl)-D-valinamide]: the 50% inhibitory concentration (IC50) in experiment [1] was 10 to 500 nM; in experiment [2], at most 10 nM.

Consider `C[C@@H](Nc1cnnc(-c2c[nH]c3ncc(F)cc23)n1)C(=O)NCC(F)(F)F` [Example 1-8, N~2~-[3-(5-fluoro-1H-pyrrolo[2,3-b]pyridin-3-yl)-1,2,4-triazin-5-yl]-N-(2,2,2-trifluoroethyl)-D-alaninamide], for which the IC50 in experiment [1] and in experiment [2] was 10 to 500 nM each time.

On to `CC(C)[C@@H](Nc1cncc(-c2c[nH]c3ncc(C(=O)N(C)C)cc23)c1)C(=O)NCC(F)(F)F` [Example 3-1, (R)—N,N-dimethyl-3-(5-(3-methyl-1-oxo-1-(2,2,2-trifluoroethylamino)butan-2-ylamino)pyridin-3-yl)-1H-pyrrolo[2,3-b]pyridine-5-carboxamide], for which the IC50 is above 500 nM in experiment [1] and 10 to 500 nM in experiment [2].

On to `CC(C)C(Nc1cncc(-c2c[nH]c3ncc(-c4cnn(C)c4)cc23)c1)C(=O)NCC(F)(F)F` (racemic) [Example 8-1, N^2-{5-[5-(1-methyl-1H-pyrazol-4-yl)-1H-pyrrolo[2,3-b]pyridin-3-yl]pyridin-3-yl}-N-(2,2,2-trifluoroethyl)valinamide], for which the concentration for half-maximal inhibition (IC50) in experiment [1] and in experiment [2] was at most 10 nM in each case.

As for `CC(C)[C@@H](Nc1cncc(-c2c[nH]c3ncc(NS(C)(=O)=O)cc23)c1)C(=O)NCC(F)(F)F` [Example 5-5, N^2-(5-{5-[(methylsulfonyl)amino]-1H-pyrrolo[2,3-b]pyridin-3-yl}pyridin-3-yl)-N-(2,2,2-trifluoroethyl)-D-valinamide], the IC50 in experiment [1] and in experiment [2] was 10 to 500 nM in each case.

For the molecule `CC(C)CNC(=O)c1cnc2[nH]cc(-c3cncc(N[C@@H](C(=O)NCC(F)(F)F)C(C)C)c3)c2c1` [Example 3-7, N-(2-methylpropyl)-3-[5-({(1R)-2-methyl-1-[(2,2,2-trifluoroethyl)carbamoyl]propyl}amino)pyridin-3-yl]-1H-pyrrolo[2,3-b]pyridine-5-carboxamide], the IC50 was 10 to 500 nM in experiment [1] and at most 10 nM in experiment [2].

As to `COCCOc1cnc2[nH]cc(-c3cncc(NC(C(=O)NCC(F)(F)F)C(C)C)c3)c2c1` (stereo not drawn) [Example 2-2], the concentration for half-maximal inhibition (IC50) is 10 to 500 nM in experiment [1] and at most 10 nM in experiment [2].

As to `Fc1cnc2[nH]cc(-c3nncc(N4CCCC4c4nccs4)n3)c2c1` (stereo not drawn) [Example 1-11, 5-fluoro-3-{5-[2-(1,3-thiazol-2-yl)pyrrolidin-1-yl]-1,2,4-triazin-3-yl}-1H-pyrrolo[2,3-b]pyridine], the IC50 in experiment [1] and in experiment [2] was 10 to 500 nM throughout.

On to `O=C(NCC(F)(F)F)[C@H]1CCCC[C@H]1Nc1cnnc(-c2c[nH]c3ncc(Cl)cc23)n1` [Example 1-19, (1S,2R)-2-{[3-(5-chloro-1H-pyrrolo[2,3-b]pyridin-3-yl)-1,2,4-triazin-5-yl]amino}-N-(2,2,2-trifluoroethyl)cyclohexane-carboxamide], for which the half-inhibitory concentration (IC50) in experiment [1] and in experiment [2] was 10 to 500 nM in each case.

For the molecule `C[C@@H](Nc1cncc(-c2c[nH]c3ncc(F)cc23)c1)C(=O)NCC(F)(F)F` [Example 1-30, N~2~-[5-(5-fluoro-1H-pyrrolo[2,3-b]pyridin-3-yl)pyridin-3-yl]-N-(2,2,2-trifluoroethyl)-D-alaninamide], the IC50 in experiment [1] and in experiment [2] was 10 to 500 nM throughout.

`CC(C)[C@@H](Nc1cnnc(-c2c[nH]c3ncc(C#N)cc23)n1)C(=O)NCC(F)(F)F` [Example 1-17, N~2~-[3-(5-cyano-1H-pyrrolo[2,3-b]pyridin-3-yl)-1,2,4-triazin-5-yl]-N-(2,2,2-trifluoroethyl)-D-valinamide]: the IC50 in experiment [1] was 10 to 500 nM; in experiment [2], at most 10 nM.

On to `COCC(C)NC(=O)c1cnc2[nH]cc(-c3cncc(N[C@@H](C(=O)NCC(F)(F)F)C(C)C)c3)c2c1` (stereo partly drawn) [Example 3-3, N-(2-methoxy-1-methylethyl)-3-[5-({(1R)-2-methyl-1-[(2,2,2-trifluoroethyl)carbamoyl]propyl}amino)pyridin-3-yl]-1H-pyrrolo[2,3-b]pyridine-5-carboxamide], for which the IC50 is 10 to 500 nM in experiment [1] and at most 10 nM in experiment [2].

Turning to `C[C@@H](Nc1cncc(-c2c[nH]c3ncc(Cl)cc23)c1)C(=O)NCC(F)(F)F` [Example 1-29, N~2~-[5-(5-chloro-1H-pyrrolo[2,3-b]pyridin-3-yl)pyridin-3-yl]-N-(2,2,2-trifluoroethyl)-D-alaninamide], the figures for the IC50 in experiment [1] and in experiment [2] were 10 to 500 nM and at most 10 nM, respectively.

Take `CC(C)[C@H](Nc1cncc(-c2c[nH]c3ncc(CNC(=O)CC(F)(F)F)cc23)c1)C(=O)NCC(F)(F)F` [Example 10-10, N-(2,2,2-trifluoroethyl)-N~2~-[5-(5-{[(3,3,3-trifluoropropanoyl)amino]methyl}-1H-pyrrolo[2,3-b]pyridin-3-yl)pyridin-3-yl]valinamide]: the values for the IC50 in experiment [1] and in experiment [2] were above 500 nM and 10 to 500 nM, respectively.
